Among the data in US9593109B2, “Bicyclic agonists of GPR131 and uses thereof” (CYMABAY THERAPEUTICS, INC., priority 2011, dated 2017) are activation values, retold here.

The target in the assay is T1, human GPR131 (Homo sapiens, UniProt Q8TDU6).
T1 construct: expressed in transfected cells
T1 sequence (Q8TDU6 1-330): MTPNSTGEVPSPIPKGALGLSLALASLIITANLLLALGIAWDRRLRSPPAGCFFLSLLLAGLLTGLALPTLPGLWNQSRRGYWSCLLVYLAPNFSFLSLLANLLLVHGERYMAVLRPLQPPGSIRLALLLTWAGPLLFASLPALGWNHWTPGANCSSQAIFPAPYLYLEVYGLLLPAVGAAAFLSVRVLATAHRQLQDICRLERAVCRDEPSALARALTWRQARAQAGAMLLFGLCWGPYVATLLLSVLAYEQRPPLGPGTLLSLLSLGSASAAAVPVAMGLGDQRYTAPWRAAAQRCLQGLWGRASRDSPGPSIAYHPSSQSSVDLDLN
Kind of assay: Stimulation of cAMP (agonism of GPR131), FRET cAMP assay. Particulars: 0.5 h; 1.1 μM compound; compared to maximal stimulatory activity of lithocholic acid (LCA) determined at 3.3 μM; stable cell line expressing human GPR131; 37° C. for 30 minutes; read-out: Percent Activity @ 1.1 μM (of 3.3 uM LCA) (%). It counts as cell-based. The method, then: This assay was developed using a stable cell line expressing human GPR131.
To measure cAMP activity in response to GPR131 agonists, GPR131 cells suspended in DMEM/F12 medium with 1 mM IBMX were seeded in 384 well plates at 5000 cells per well. After incubating with test compounds at 37° C. for 30 minutes cAMP was measured using a fluorescene resonance energy transfer cAMP kit from Cis Bio (Bedford, Mass.) according to the manufacturer's instructions. Briefly, cells were lysed, and cAMP levels determined by competitive immunoassay using D2 labeled cAMP, and europium cryptate tagged anti cAMP antibody. Decreases in the FRET signal (fluorescence ratio (665 nm/620 […]) correspond to increases in intracellular cAMP levels.
Activities of test compounds in Table 1 below are expressed as percent activity at 1.1 μM compound compared to the maximal stimulatory activity of lithocholic acid (LCA) (determined at 3.3 μM LCA).

For the compound `FC(F)(F)c1ccc(-n2ccnc2-c2c(-c3cc(Cl)ccc3Cl)nc3ccccn23)cc1` [Compound 564, 2-(2,5-Dichlorophenyl)-3-(1-(4-(trifluoromethyl)phenyl)-1H-imidazol-2-yl)imidazo[1,2-a]pyridine], the activation at 1.1 µM is 100%.
The value for `FC(F)(F)c1ccc(-n2ccnc2-c2c(-c3cc(Cl)ccc3Cl)nc3cccnn23)cc1` [Compound 565, 2-(2,5-Dichlorophenyl)-3-(1-(4-(trifluoromethyl)phenyl)-1H-imidazol-2-yl)imidazo[1,2-b]pyridazine] was 100%; that for `N#Cc1ccc(-n2nnnc2-c2c(-c3cc(Cl)ccc3Cl)nc3ccccn23)cc1` [Compound 566, 4-(5-(2-(2,5-Dichlorophenyl)imidazo[1,2-a]pyridin-3-yl)-1H-tetrazol-1-yl)benzonitrile] was 99.7%.
As to `N#Cc1ccc(-n2ccnc2-c2c(-c3cc(Cl)ccc3Cl)nc3ccccn23)cc1` [Compound 567, 4-(2-(2-(2,5-Dichlorophenyl)imidazo[1,2-a]pyridin-3-yl)-1H-imidazol-1-yl)benzonitrile], the activation at 1.1 µM was found to be 99.9%.
The value for `Clc1cccc(-c2nc3ccccn3c2-c2nncn2-c2ccc3cn[nH]c3c2)c1` [Compound 568, 6-(3-(2-(3-Chlorophenyl)imidazo[1,2-a]pyridin-3-yl)-4H-1,2,4-triazol-4-yl)-1H-indazole] was 96%.
